This assay addresses T1, Ammonium transporter MEP2 (Saccharomyces cerevisiae (strain ATCC 204508 / S288c), UniProt P41948).
T1 sequence (P41948 whole entry): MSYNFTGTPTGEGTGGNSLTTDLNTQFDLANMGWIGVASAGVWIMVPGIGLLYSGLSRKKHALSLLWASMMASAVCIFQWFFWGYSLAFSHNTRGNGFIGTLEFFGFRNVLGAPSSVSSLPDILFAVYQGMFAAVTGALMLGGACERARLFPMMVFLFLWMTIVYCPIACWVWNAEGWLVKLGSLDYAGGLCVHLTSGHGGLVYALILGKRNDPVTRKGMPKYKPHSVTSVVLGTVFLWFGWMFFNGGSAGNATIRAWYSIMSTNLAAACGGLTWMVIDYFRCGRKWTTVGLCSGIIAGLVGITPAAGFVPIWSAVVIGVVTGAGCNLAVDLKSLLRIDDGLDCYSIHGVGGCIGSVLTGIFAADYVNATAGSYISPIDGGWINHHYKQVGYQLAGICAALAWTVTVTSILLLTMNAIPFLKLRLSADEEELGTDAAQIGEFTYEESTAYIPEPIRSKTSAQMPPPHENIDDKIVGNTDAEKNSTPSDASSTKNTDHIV
Put plainly: MEP2-GFP fusion level modulators in yeast, SAR follow-up, S. cerevisiae, multiplex GFP fusions, cherry pick 3 (AID 488812). To be noted: inactive by the depositor's call.

Drawing on BindingDB's records for doi:10.7270/Q2MW2FMC (Nmmlsc, 2011), this text covers EC50 for 3 compounds.

The term EC50 denotes the concentration that produces a half-maximal response.

For `Nc1ncnc(Nc2cc(Cl)cc(Cl)c2)c1[N+](=O)[O-]` [MLS000581561], the EC50 was determined as 74.4 µM.
The compound `Oc1c(Cl)cc(Cl)c2cccnc12` [AS-229] showed an EC50 of 36100 µM.
Turning to `CCOC(=O)CS(=O)(=O)c1nc(-c2ccccc2)cc(C(F)(F)F)n1` [2-[4-phenyl-6-(trifluoromethyl)pyrimidin-2-yl]sulfonylacetic acid ethyl ester], the midpoint of the response, the EC50, lay at 68.2 µM.
